# Measurements published in patent US20250228833A1, “METHODS AND COMPOSITIONS FOR TREATING AGITATION” (BioXcel Therapeutics, Inc., priority 2021, published 2025).
# Where a name gives a salt, the structure may show the parent alone.
# Assays:
# [1] = system: yohimbine-induced noradrenergic hyperarousal; experiment: Elevated plus maze, latrepirdine at different doses in yohimbine-induced hyperarousal (Example 3); format: in vivo, Wistar rats; details: for Percent increase as referred to the Vehicle level, Entries / Percent increase as referred to the Vehicle level, Time: yohimbine 2.5 mg/kg i.p. 30 min, 60 min
# Protocol: Drug preparation: All compounds/drugs were prepared in normal saline (0.9% NaCl).
# Yohimbine was prepared at a solution of 2.5 mg/mL which when injected i.p. at a dosage volume of 1 mL/kg results in a dose of 2.5 mg/kg. Diazepam was prepared at a solution of 1 mg/mL which when injected i.p. at a dosage volume of 1 mL/kg results in a dose of 1 mg/kg. Latrepirdine dihydrochloride hydrate was prepared at a solution of 7.5, 2.5, 0.75 and 0.25 mg/mL which when injected i.m. at a volume of 100 μL for a rat of 250 g results in doses of 3; 1; 0.3 and 0.1 mg/kg; respectively. Latrepirdine dihydrochloride hydrate was also prepared at […] which when administrated i.p. at a dosage volume of 1 mL/kg results in a dose of 3 mg/kg.
# Male Wistar rats (Janvier; Le Genest St Isle-France) were used for the study. They were purchased at a body weight of 150 g and reached a body weight of about 220 g at the time of use. They were group-housed (3-4 rats per cage) and maintained in a room with controlled temperature (21-22° C.) and a reversed light-dark cycle (12 h/12 h; lights on: 17:30-05:30; lights off: 05:30-17:30) with food and water available ad libitum.
# Rats were distributed in 9 different experimental groups with 12 rats per group as illustrated in Table 6. Each experimental group was also coded so that the experimenter became unaware of the true experimental group at the time EPM trial.
# The rats were randomly assigned to one of the different experimental groups. Each animal was identified by its group name, cage number, series (day) of experiment, and a number (from 1 to 9) written with permanent ink on its tail. They were handled by an experimenter for about 3 min each day during 1 week prior to the day of EPM trial. The apparatus was a PVC maze covered with Plexiglas and subdivided into four equal exploratory arms (40×10 cm), which were all interconnected by a small platform (10×10 cm). The apparatus was placed 65 cm above the floor. Two arms were opened, and two others were closed with wall (high: 10 cm). After compound administration, rat was placed on the platform opposite a closed arm. The number of entries and the time spent in each arm were recorded during a 5 min period. The animal was considered as entered in an arm when it placed its four paws in the arm. The apparatus was cleaned between each animal using alcohol (70%). Urine and feces were removed from the maze. During the trials, animal handling and the visibility of the operator were minimized as much as possible.
# Analysis of variance (ANOVA) was performed on the result data. Fisher's PLSD was used for pairwise comparisons and p value≤0.05 were considered significant. For the sake of comparison, the change in the EPM performance of Yohimbine rats was expressed as a percentage of increase/decrease as referred to the level recorded in the vehicle (set as 0% change). Therefore, for each of the EPM parameter, the following formula was used: [performance of a given group-performance of vehicle group]/[performance of vehicle group]×100
# depressive-like behavior = experiment: Forced swim test in dark phase (Example 4)
# Protocol: • Species: Rattus norvegicus • Strain: Sprague Dawley (SD) • Sex and Age: Male, 8-10 weeks old • Source: Hylasco Biotechnology Pvt.
# Study was carried out as a staggered treatment, each treatment group divided as cohort 1, cohort 2 and cohort 3.
# Swim 2 was carried out between 19:30 to 21:30. Animals were administered test compounds from 18:30 onwards in staggered manner 60 minutes before FST 2.
# Forced Swim Test was carried out in Dark Phase
# On Day 1, animals were subjected to forced swim test training for 15 minutes (Swim 1) and on Day 2, Swim 2 was carried out post treatment.
# On day 2 animals were dosed with respective treatment 60 min prior to performing FST.
# Forced swim test (Swim 2) was scored manually with no video recording
# Forced swim test (FST), was used to study the depressive-like behavior in rodents. The test was carried out in transparent cylindrical glass containers measuring 46 cm in height and 20 cm in diameter.
# The containers were filled with water (23-25° C.) to a depth of 30 cm.
# There were 2 swim sessions, 24 h apart. The first session, Swim 1 was the pretest/training stage (15 min) and the second session, Swim 2, was the test stage (8 min).
# In swim 2, first 1-minute data was excluded from analysis and rest 7 minutes data was considered. In 7 minutes, data, it was divided 5 minutes and 2 minute.
# Rat was placed in the water-filled cylinder for 15 min (Swim 1). […]
# [2] = system: spontaneous locomotor activity; experiment: Open field test (Example 7); details: 60 min post dose, 30 minutes tracking, vs vehicle
# Protocol: Test system: Mice Strain/Gender: Swiss albino/Male Study: Open field test
# Open field test: The spontaneous locomotor activity in terms of total distance traveled is measured in open field test. Comparatively lower distance traveled would indicate either less motor activity or sedation.
# Mice were brought to the laboratory and allowed to acclimatize to the environment for at least 7 days. The open field test was done in lighting conditions of 40 lux light. The mice were dosed as per the allocation. After a post dose interval of 60 minutes, 4 mice from a group were placed in the open field and the movement was tracked for a period of 30 minutes. Once the trial was over the mice were removed from the open field and the arena was cleaned. Following this, next set of 4 mice were placed in the arena and tracked.
# The distance travelled for a period of 30 minutes was analyzed in bins of 5 minutes and was compared with that of the vehicle group using one-way ANOVA followed by Dunnett's test. All statistical analysis were performed using Graph pad prism software package (Version 7 or Higher) and p value below 0.05 was considered as significant.
# [3] = system: yohimbine-induced noradrenergic mediated hyperarousal; experiment: Elevated plus maze, yohimbine-induced hyperarousal (Example 2); format: in vivo, Wistar rats; details: for exploration time (time spent in the open arms) / number of open arm entries: 60 min prior to EPM, yohimbine 2.5 mg/kg i.p. 30 min prior, 5 min period; for reduction of noradrenergic mediated hyperarousal: 10 mg/kg i.m. pretreatment, yohimbine 2.5 mg/kg i.p.
# From the text: Background: Yohimbine is an alpha 2-adrenergic receptor antagonist reported to trigger panic attacks in healthy volunteers and to exacerbate symptoms in patients with panic disorder (Charney et al., 1992 Acta Psychiatr Scand., Vol. 86 (4): 273-282). Peripheral administration of Yohimbine causes noradrenergic mediated hyperarousal in rats as assessed by the EPM paradigm.
# Rationale: The drug yohimbine is a natural product used to test a specific pathway, noradrenergic-mediated hyper-arousal. It is well established that yohimbine is an alpha2-adrenergic receptor antagonist and activates the locus coeruleus (LC) and increases noradrenergic signaling (the opposite of alpha2-adrenergic agonists like dexmedetomidine and clonidine). Increased LC activity and noradrenergic signaling makes animals anxious and agitated which can be measured by using the elevated plus maze. In the elevated plus maze, rodents were in the closed arms and explored the open arms depending on their anxiety and agitation (rats and mice normally explore their environments extensively when calm).
# Animal groups: Male: Wistar rats were used in this study and were randomly divided to different experimental groups (12 animals per group).
# The test drugs were procured from Sigma or Tocris. dextromethorphan from Sigma Aldrich, Cat No. D9684; latrepirdine from Sigma Aldrich, Cat No. D6196 or Tocris Cat No. 3201 diazepam and fluvoxamine Sigma Aldrich, Cat No. F2802 or Tocris, Cat No. 1033. All these test drugs were formulated in sufficient quantity in 0.9% saline except for Fluvoxamine, which was formulated in 30% ethanol in 0.9% saline.
# Apparatus: Elevated Plus Maze (EPM) was used (FIG. 1). The maze consisted of two closed arms and two open arms forming a cross, with a square center platform. All visible surfaces were made of black acrylic. Each arm of the maze was placed on a support column above the floor. Antistatic black vinyl curtains used for surrounding the EPM to make an enclosure.
# Study Design and Dosing: Yohimbine was administered by intraperitoneal injection (i.p.) at a dose of 2.5 mg/kg (30 minutes prior to study) to induce agitation and the effects were assessed 30 minutes after yohimbine injection by measuring the number of open arm entries and exploration time in the EPM. The test drugs fluvoxamine, dextromethorphan and latrepirdine dihydrochloride hydrate were administered through intramuscular route and, diazepam through intraperitoneal route into the hindleg thigh muscle of rats (60 minutes prior to study; 30 minutes prior to yohimbine administration). Diazepam was injected 30 minutes intraperitonially prior to the assay i.e. along with yohimbine administration. The study design is illustrated in FIG. 2 and table 5.
# After the test drug administration, the rat was placed on the platform opposite a closed arm. The number of entries and the time spent in each arm were recorded during a 5 min period. The animal was considered as entered in arm when it placed its four paws into the arm.
# Statistical Analysis: Analysis of variance (ANOVA) was performed on the result data. Fisher's PLSD was used for pairwise comparisons and p value≤0.05 was considered significant.
# aggressive behavior = experiment: Resident intruder task (Example 5); format: in vivo, Swiss albino mice; details: 10 mg/kg i.p., 60 min prior to trial; mean value
# Protocol: Strain/Gender: Swiss albino/Male
# Bilateral ovariectomy surgery was carried out in 3-4 weeks old female Swiss albino mice as per the standard methods (Alagwu and Nneli, 2005). Animals were anesthetized using Avertin (2,2,2-Tribromoethanol) at 250 mg/kg, i.p. and were laid down on the surgery table and fixed with adhesive plaster. A midline incision was made on the dorsal region below the rib and 1 cm lateral to the either side of midline, a small incision was made on fascia to isolate the adipose fat supporting the ovaries. By slowly pulling out the fat tissue, the ovary was identified and excised the following uterine horn ligation with silk sutures. Fascia was covered with sutures and similar procedure was repeated on the other side as well. Superficial skin layers were sutured and gentamicin (80 mg/kg, s.c.) was given as antibiotic and meloxicam (4 mg/kg, s.c.) as analgesic, then povidone iodine was applied on superficial skin layers. Polyethylene glycol (PEG) was applied to prevent drying of eye balls and kept for recovery period of 3 weeks (surgery was carried by a single experimenter). […]
# Data obtained was compared with basal scoring by using Student's paired two tailed t-test. Duration of attack, and latency of attack between the groups was analyzed using One-Way ANOVA followed by Bonferroni's posthoc test. […]
smiles,measurement,setting,value
"COC(=O)[C@@H]1[C@H]2C[C@H]3c4[nH]c5ccccc5c4CCN3C[C@@H]2CC[C@@H]1O [yohimbine, Yohimbine]",number of visits to and time spent into the open arms,"[1]; 2.5 mg/kg i.p., vehicle-treated, compared to vehicle-treated saline rats",marked significant decrease
"Cc1cccc([C@H](C)c2cnc[nH]2)c1C [Dexmedetomidine hydrochloride, (+) 4-(S)-[1-(2,3-dimethylphenyl)ethyl]-1H-imidazole]",increase in swimming time as compared to vehicle saline,depressive-like behavior; 1 μg/kg i.m.,~1.6%
same,distance traveled,[2]; 4 μg/kg i.p.,did not show any significant reduction
same,distance traveled,[2]; 10 μg/kg i.p.,did not show any significant reduction
same,distance traveled,[2]; 20 μg/kg i.p.,did not show any significant reduction
same,distance traveled,[2]; 30 μg/kg i.p.,significant reduction
"Cc1ccc2c(c1)c1c(n2CCc2ccc(C)nc2)CCN(C)C1 [Latrepirdine dihydrochloride hydrate, 2,8-dimethyl-5-[2-(6-methylpyridin-3-yl)ethyl]-3,4-dihydro-1H-pyrido[4,3-b]indole]",exploration time (time spent in the open arms),[3]; 3 mg/kg i.m.,increased
same,number of open arm entries,[3]; 3 mg/kg i.m.,significantly increased
same,exploration time (time spent in the open arms),[3]; 10 mg/kg i.m.,increased
same,number of open arm entries,[3]; 10 mg/kg i.m.,significantly increased
same,increase in swimming time as compared to vehicle saline,depressive-like behavior; 1 mg/kg i.m.,9.8%
same,duration of attack,aggressive behavior,36.87 s
same,distance traveled,[2]; 1 mg/kg i.p.,did not show any significant reduction
same,distance traveled,[2]; 3 mg/kg i.p.,did not show any significant reduction
same,distance traveled,[2]; 10 mg/kg i.p.,did not show any significant reduction
same,"Percent increase as referred to the Vehicle level, Entries",[1]; 1 mg/kg i.m.,significant
same,"Percent increase as referred to the Vehicle level, Time",[1]; 1 mg/kg i.m.,significant
same,"Percent increase as referred to the Vehicle level, Entries",[1]; 3 mg/kg i.m.,significant
same,"Percent increase as referred to the Vehicle level, Time",[1]; 3 mg/kg i.m.,significant
same,"number of visits to and time spent into the open arms, dose dependence","[1]; yohimbine administered rats, 0.1, 0.3, 1 and 3 mg/kg i.m.",dose-dependent increase
same,"EPM performance, i.m. compared with i.p. route","[1]; yohimbine rats, 3 mg/kg i.m. vs 3 mg/kg i.p.",comparable
same,EPM performance of saline-treated rats,"[1]; yohimbine-free rats, 3 mg/kg i.m.",did not significantly modify
"COCCCC/C(=N\OCCN)c1ccc(C(F)(F)F)cc1 [fluvoxamine, Fluvoxamine]",reduction of noradrenergic mediated hyperarousal,[3],ineffective
same,exploration time (time spent in the open arms),[3]; 10 mg/kg i.m.,no effect
same,number of open arm entries,[3]; 10 mg/kg i.m.,no effect
"COc1ccc2c(c1)[C@]13CCCC[C@@H]1[C@H](C2)N(C)CC3 [dextromethorphan, Dextromethorphan]",reduction of noradrenergic mediated hyperarousal,[3],ineffective
same,exploration time (time spent in the open arms),[3]; 10 mg/kg i.m.,no effect
same,number of open arm entries,[3]; 10 mg/kg i.m.,no effect
